Laboratory results reported in patent US20260216239A1 (Arizona Board of Regents on Behalf of the University of …, priority 2020, published 2026).
Where two headings read alike, the source gives them in different places.

Key:
[1] = tested on: C. scutulatus scutulatus (type B) venom; experiment: Rabbit model of subcutaneous envenomation, thrombelastography and vital signs; type: in vivo, New Zealand White rabbits; conditions: n=1
Description: Male New Zealand White rabbits (2-3 kg) were procured from Charles River Laboratories (San Diego, CA, USA) and housed within our animal facility and allowed food and water ad libitum for at least 1 week prior to experimentation.
Rabbits were briefly restrained and had one ear closely clipped and cleaned with a 70% isopropyl alcohol pad. A 22 G plastic catheter was placed in the central ear artery and another similar catheter placed in the marginal ear vein; both catheters were connected to an end cap with a rubber diaphragm that allowed the withdrawal of blood samples and administration of medications. The animals were sedated intravenously with 1 mg/kg midazolam, with supplemental doses of 0.5-1 mg/kg provided during experimentation to maintain sedation. […] Heart rate (HR) and SpO2 were recorded at baseline and every 15 min thereafter until the end of the experiment.
An approximately 5 cm by 5 cm area of skin over either flank of the rabbit, midway between the lumbar spine and mid abdomen, was closely shaved and cleaned with a 70% isopropyl alcohol pad. A 1 cm circle was drawn with a felt tip marker in the center of this area, which served as the injection site for venom and antivenom as appropriate. After obtaining baseline HR value, SpO2 value, and the initial blood sample, venom was injected subcutaneously in the middle of the circle through a ⅝ inch long, 25 G needle. […]

[2] = tested on: Echis leucogaster venom; conditions: previously characterized by this laboratory; cited from earlier work
[3] = tested on: Echis leucogaster venom; experiment: Thrombelastography in human plasma of venom procoagulant activity after isolated exposure of venom to compounds; type: biochemical; conditions: venom exposed 5 min to 100 μM CORM-2 in 5% human albumin; venom 1 μg/mL in plasma
[4] = tested on: Pseudonaja textilis venom; conditions: previously characterized by this laboratory; cited from earlier work
[5] = large dose of CORM-2 injected intravenously into rabbits; cited from earlier work
[6] = tested on: acute kidney injury; conditions: up to 30 mg/kg of CORM-2; cited from earlier work
[7] = tested on: human plasma; type: biochemical
Method: Given that the only compounds present with anions different from RuCl3 potentially available to displace Cl in the PBS used was KH2PO4 (1.5 mM) and Na2HPO4 (8.1 mM), a comparison of the effects of 1 and 10 μM RuCl3 (final concentration) dissolved in dH2O or PBS was performed in plasma as a 1% addition (v/v) with coagulation assessed via thrombelastography.
The volumes of subsequently described plasmatic and other additives summed to a final volume of 360 μL. Samples were composed of 320 μL of plasma; 16.4 μL of PBS, 20 μL of 200 mM CaCl2), and 3.6 μL of PBS, RuCl3, or venom solution mixture, which were pipetted into a disposable cup in a Thrombelastograph® hemostasis system (Model 5000, Haemonetics Inc., Braintree, MA, USA) at 37° C., and then rapidly mixed by moving the cup up against and then away from the plastic pin five times. The PBS, RuCl3, or venom solution mixtures was always the last constituent added prior to mixing and data collection. The following viscoelastic parameters described previously (see, Nielsen, V. G.; et al., Biometals 2016, 29, 913-919; Nielsen, V. G.; Losada, P. A. Basic Clin. Pharmacol. Toxicol. 2017, 120, 207-212; Nielsen, V. G.; Frank, N. J. Thromb. Thrombolysis 2019, 47, 533-539; Nielsen, V. G.; Bazzell, C. M. J. Thromb. Thrombolysis 2017, 43, 203-208; Nielsen, V. G.; Matika, R. W. Hum. Exp. Toxicol. 2017, 36, 727-733; Nielsen, V. G.; et al., Toxins 2018, 10, 322; Nielsen, V. G.; et al., Biometals 2018, 31, 51-59; Nielsen, V. G.; Frank, N. et al., Biometals 2018, 31, 951-959; Nielsen, V. G.; et al., Toxins 2019, 11, 94; Nielsen, V. G.; Frank, N. Hum Exp. Toxicol. 2019, 38, 216-226; Nielsen, V. G. J. Thromb. Thrombolysis 2019, 48, 256-262; Nielsen, V. G.; et al., Blood Coagul. Fibrinolysis 2019, 30, 379-384; Nielsen, V. G. J. Thromb. Thrombolysis 2019, 47, 73-79) were measured: time to maximum rate of thrombus generation (TMRTG): this is the time interval (minutes) observed prior to maximum speed of clot growth; maximum rate of thrombus generation (MRTG): this is the maximum velocity of clot growth observed (dynes/cm^2/s); and total thrombus generation (TTG, dynes/cm^2), the final viscoelastic resistance observed after clot formation. Data were collected until the clot strength reached its final plateau (maximum amplitude) that was stable for 3 min.
Thus, experiments wherein RuCl3 was dissolved in either dH2O or PBS were conducted with the final concentration of RuCl3 in plasma being 1 or 10 μM. Data were collected until maximum amplitude was observed.
Specific volumes of subsequently described plasma and chemical additives varied by condition but summated to 360 μl. Sample composition consisted of 320 μl of plasma; 16.4 μl of PBS, 20 μl of 200 mM CaCl2, and 3.6 μl of one of five subsequently described solutions, which were placed into a disposable cup in a computer-controlled Thrombelastograph® hemostasis system (Model 5000, Haemonetics Inc., Braintree, MA, USA) at 37° C., and then rapidly mixed by moving the cup up against and then away from the plastic pin five times before leaving the mixture between the cup and pin.

[8] = 10 vs 1 μM RuCl3 (final) dissolved in PBS
[9] = 10 vs 1 μM RuCl3 (final) dissolved in dH2O

Structure (SMILES)	plasmatic velocity of clot formation and strength ([1]; 10 mg/kg CORM-2 injected into venom site 5 min after venom 11.2 mg/kg)	plasmatic velocity of clot formation ([1]; 20 mg/kg CORM-2 injected into venom site after venom 11.2 mg/kg)	CORM-2/ iRM Inhibition [2]	procoagulant activity of venom [3]	CORM-2/ iRM Inhibition [4]	tolerability [5]	protection against acute kidney injury [6]	tolerability [6]	increase in MRTG values [7]	maximum rate of thrombus generation (MRTG) ([7]; 1 μM RuCl3 dissolved in PBS vs control conditions, preliminary investigation)	total thrombus generation (TTG) ([7]; 1 and 10 μM RuCl3 in dH2O or PBS, interaction of RuCl3 and fluid)	maximum rate of thrombus generation (MRTG) [7, 8]	time to maximum rate of thrombus generation (TMRTG) [7, 8]	maximum rate of thrombus generation (MRTG) [7, 9]	time to maximum rate of thrombus generation (TMRTG) [7, 9]	plasmatic TMRTG or TTG values ([7]; RuCl3 1 μM final in water or PBS vs plasma without RuCl3)
[C-]#[O+].[C-]#[O+].[C-]#[O+].[C-]#[O+].[C-]#[O+].[C-]#[O+].[Cl][Ru][Cl].[Cl][Ru][Cl] [CORM-2, tricarbonyldichlororuthenium(II) dimer]	appeared to preserve the velocity of clot formation and strength until the third hour after venom injection	minimally affected for the three hours after venom injection	Yes	uninhibited	Yes	well tolerated	protected against injury	well tolerated	–	–	–	–	–	–	–	–
[Cl][Ru]([Cl])[Cl] [RuCl3, ruthenium(III) chloride]	–	–	–	–	–	–	–	–	37-61%	increased	decreased	increase	significantly decrease	increase	significant decrease	no significant differences
